# Residue numbers refer to the chain shown, from its start.
# Legend:
# [1] = target: T1, UL97 V665I (Human cytomegalovirus, UniProt Q68101, V665I); test: UL97 autophosphorylation protein kinase assay, V665I; format: biochemical; conditions: V665I mutant
# T1 construct: PCR reaction to generate the full length UL97; honey bee melittin secretion signal (N); made in house; host or cells: Sf21 insect cells, recombinant baculovirus (pMelBac C)
# T1 sequence (Q68101 1-707 V665I): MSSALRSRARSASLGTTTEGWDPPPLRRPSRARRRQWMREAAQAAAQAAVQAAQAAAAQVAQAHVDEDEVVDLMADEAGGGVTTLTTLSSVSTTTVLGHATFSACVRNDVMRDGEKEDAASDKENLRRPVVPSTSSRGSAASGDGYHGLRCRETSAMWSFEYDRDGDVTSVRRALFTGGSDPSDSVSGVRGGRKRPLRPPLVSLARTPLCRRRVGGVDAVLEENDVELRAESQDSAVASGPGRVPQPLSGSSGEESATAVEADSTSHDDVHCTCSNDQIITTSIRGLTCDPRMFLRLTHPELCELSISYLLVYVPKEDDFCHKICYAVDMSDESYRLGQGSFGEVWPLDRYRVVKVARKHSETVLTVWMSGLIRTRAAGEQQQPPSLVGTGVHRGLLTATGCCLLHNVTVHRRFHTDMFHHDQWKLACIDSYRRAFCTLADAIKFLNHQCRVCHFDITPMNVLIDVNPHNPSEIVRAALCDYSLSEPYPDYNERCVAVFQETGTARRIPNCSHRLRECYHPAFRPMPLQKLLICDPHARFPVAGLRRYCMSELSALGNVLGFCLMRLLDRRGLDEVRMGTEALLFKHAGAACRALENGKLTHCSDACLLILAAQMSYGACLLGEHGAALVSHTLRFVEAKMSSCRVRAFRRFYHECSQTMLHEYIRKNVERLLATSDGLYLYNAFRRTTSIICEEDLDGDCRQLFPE
# Protocol: (§1) Analysis of the autophosphorylation of wild type and mutant UL97 protein species was performed by a standard protein kinase assay as previously described (46). Briefly, purified protein was added to 2× protein kinase buffer (100 mM Tris HCl, pH9.0, 20 mM MgCl2, 10 μM ATP, 4 mM DTT, 2 M NaCl) and 370 KBq [γ^32P] ATP (Amersham), made up to 20 μl with SDW and incubated at 37°C. The reactions were terminated by the addition of 2× SDS sample buffer followed by boiling for 3 minutes. The amount of radiolabelled phosphate incorporated by autophosphorylation was analysed by SDS-PAGE and measured using the Biorad Mulitanalyst. The protein kinase assays were initially performed for 2 to 60 minutes to determine the maximum rate of phosphate incorporation, all assays were then performed at the maximum rate which equated to 5 minutes.
# (§2) Enzyme kinetic analysis was performed on the purified wild type and mutant UL97 protein species as above using increasing concentrations of ATP (2 μM to 20 μM). The amount of incorporated radiolabelled phosphate was plotted against the concentration of ATP in a Lineweaver Burke plot to determine the Km for ATP for each UL97 species. […]
# [2] = test system: HCMV strains resistant to ganciclovir, foscarnet and cidofovir; parameters: method as in PMID 16962820; conditions: cited from earlier work
# [3] = target: T2, UL97 L397R (Human cytomegalovirus, UniProt Q68101, L397R); test: UL97 autophosphorylation protein kinase assay, L397R; format: biochemical; conditions: L397R mutant
# T2 construct: PCR reaction to generate the full length UL97; honey bee melittin secretion signal (N); expressed in transfected cells; host or cells: Sf21 insect cells infected with recombinant baculovirus
# T2 sequence (Q68101 1-707 L397R): T1 sequence (Q68101 1-707 V665I) with L397R, I665V
# Protocol: as §1, §2
compound,measurement,setting,value
"CC(C)Nc1nc2cc(Cl)c(Cl)cc2n1[C@H]1O[C@@H](CO)[C@H](O)[C@@H]1O [maribavir, 5,6-dichloro-2-(isopropylamino)-1-beta-L-ribofuranosyl-1H-benzimidazole]",IC50,[1],30 nM
same,activity against resistant strains,[2],active
same,reduction in autophosphorylation,[3]; drug concentrations increased to 100 μM,did not exhibit a reduction in autophosphorylation
same,effect on autophosphorylation,[3]; maribavir 0.5 μM,unaffected
